{"source": "PubChem BioAssay (NCI)", "assay_in_all_cases": "DTP human tumour cell line panel, 48 h", "key": {"[1]": {"test_system": "NCI/ADR-RES ovarian"}, "[2]": {"test_system": "NCI-H522 lung"}, "[3]": {"test_system": "BT-549 breast"}, "[4]": {"test_system": "SF-539 CNS"}, "[5]": {"test_system": "SNB-19 CNS"}, "[6]": {"test_system": "TK-10 renal"}, "[7]": {"test_system": "OVCAR-5 ovarian"}, "[8]": {"test_system": "MOLT-4 leukemia"}, "[9]": {"test_system": "MDA-MB-435"}, "[10]": {"test_system": "HCC-2998 colon"}, "[11]": {"test_system": "OVCAR-3 ovarian"}, "[12]": {"test_system": "NCI-H460 lung"}, "[13]": {"test_system": "SW-620 colon"}, "[14]": {"test_system": "COLO 205 colon"}, "[15]": {"test_system": "SK-MEL-2 melanoma"}, "[16]": {"test_system": "ACHN renal"}, "[17]": {"test_system": "786-0 renal"}, "[18]": {"test_system": "SF-295 CNS"}, "[19]": {"test_system": "EKVX NSCLC"}, "[20]": {"test_system": "SK-MEL-5 melanoma"}, "[21]": {"test_system": "SK-MEL-28 melanoma"}, "[22]": {"test_system": "MCF7 breast"}, "[23]": {"test_system": "MDA-MB-231 breast"}, "[24]": {"test_system": "OVCAR-4 ovarian"}, "[25]": {"test_system": "DU-145 prostate"}, "[26]": {"test_system": "KM12 colon"}, "[27]": {"test_system": "OVCAR-8 ovarian"}, "[28]": {"test_system": "UACC-62 melanoma"}, "[29]": {"test_system": "HL-60(TB) leukemia"}, "[30]": {"test_system": "IGROV1 ovarian"}, "[31]": {"test_system": "LOX IMVI melanoma"}, "[32]": {"test_system": "K-562 leukemia"}, "[33]": {"test_system": "HCT-116 colon"}, "[34]": {"test_system": "MALME-3M melanoma"}, "[35]": {"test_system": "SK-OV-3 ovarian"}, "[36]": {"test_system": "NCI-H23 lung"}, "[37]": {"test_system": "A498 renal"}, "[38]": {"test_system": "CAKI-1 renal"}, "[39]": {"test_system": "SF-268 CNS"}, "[40]": {"test_system": "HS 578T breast"}, "[41]": {"test_system": "NCI-H226 lung"}, "[42]": {"test_system": "PC-3 prostate"}, "[43]": {"test_system": "T-47D breast"}, "[44]": {"test_system": "HCT-15 colon"}, "[45]": {"test_system": "UACC-257 melanoma"}, "[46]": {"test_system": "HOP-62 NSCLC"}, "[47]": {"test_system": "UO-31 renal"}, "[48]": {"test_system": "HOP-92 NSCLC"}, "[49]": {"test_system": "CCRF-CEM leukemia"}, "[50]": {"test_system": "A549 NSCLC"}, "[51]": {"test_system": "M14 melanoma"}, "[52]": {"test_system": "SNB-75 CNS"}, "[53]": {"test_system": "SN12C renal"}, "[54]": {"test_system": "HT29 colon"}}, "note": "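48-hour exposure; five concentrations; linearly interpolated endpoints. GI50: concentration for 50% inhibition of growth. Definition used: TGI = concentration required for complete inhibition of growth.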", "data": [{"smiles": "CN1CCN(c2ccc(Nc3nc(NCCCNS(=O)(=O)c4cccc5ccccc45)c4sccc4n3)cc2)CC1", "values": [{"measurement": "GI50", "setting": "[1]", "value": 5.29, "unit": "µM"}, {"measurement": "TGI", "setting": "[1]", "value": 19.8, "unit": "µM"}, {"measurement": "GI50", "setting": "[2]", "value": 1810, "unit": "nM"}, {"measurement": "TGI", "setting": "[2]", "value": 3.92, "unit": "µM"}, {"measurement": "GI50", "setting": "[3]", "value": 5.23, "unit": "µM"}, {"measurement": "TGI", "setting": "[3]", "value": 21.4, "unit": "µM"}, {"measurement": "GI50", "setting": "[4]", "value": 1720, "unit": "nM"}, {"measurement": "TGI", "setting": "[4]", "value": 3.11, "unit": "µM"}, {"measurement": "GI50", "setting": "[5]", "value": 5.75, "unit": "µM"}, {"measurement": "TGI", "setting": "[5]", "value": 18.3, "unit": "µM"}, {"measurement": "GI50", "setting": "[6]", "value": 4.54, "unit": "µM"}, {"measurement": "TGI", "setting": "[6]", "value": 16.5, "unit": "µM"}, {"measurement": "GI50", "setting": "[7]", "value": 4.51, "unit": "µM"}, {"measurement": "TGI", "setting": "[7]", "value": 16.5, "unit": "µM"}, {"measurement": "GI50", "setting": "[8]", "value": 2930, "unit": "nM"}, {"measurement": "TGI", "setting": "[8]", "value": 11.9, "unit": "µM"}, {"measurement": "GI50", "setting": "[9]", "value": 1760, "unit": "nM"}, {"measurement": "TGI", "setting": "[9]", "value": 3.21, "unit": "µM"}, {"measurement": "GI50", "setting": "[10]", "value": 1970, "unit": "nM"}, {"measurement": "TGI", "setting": "[10]", "value": 4.37, "unit": "µM"}, {"measurement": "GI50", "setting": "[11]", "value": 3.32, "unit": "µM"}, {"measurement": "TGI", "setting": "[11]", "value": 10.5, "unit": "µM"}, {"measurement": "GI50", "setting": "[12]", "value": 3.44, "unit": "µM"}, {"measurement": "TGI", "setting": "[12]", "value": 10.6, "unit": "µM"}, {"measurement": "GI50", "setting": "[13]", "value": 2020, "unit": "nM"}, {"measurement": "TGI", "setting": "[13]", "value": 4.04, "unit": "µM"}, {"measurement": "GI50", "setting": "[14]", "value": 2120, "unit": "nM"}, {"measurement": "TGI", "setting": "[14]", "value": 4.31, "unit": "µM"}, {"measurement": "GI50", "setting": "[15]", "value": 2360, "unit": "nM"}, {"measurement": "TGI", "setting": "[15]", "value": 5.79, "unit": "µM"}, {"measurement": "GI50", "setting": "[16]", "value": 3.39, "unit": "µM"}, {"measurement": "TGI", "setting": "[16]", "value": 10.6, "unit": "µM"}, {"measurement": "GI50", "setting": "[17]", "value": 1780, "unit": "nM"}, {"measurement": "TGI", "setting": "[17]", "value": 3.44, "unit": "µM"}, {"measurement": "GI50", "setting": "[18]", "value": 1860, "unit": "nM"}, {"measurement": "TGI", "setting": "[18]", "value": 3.81, "unit": "µM"}, {"measurement": "GI50", "setting": "[19]", "value": 7.21, "unit": "µM"}, {"measurement": "TGI", "setting": "[19]", "value": 20.7, "unit": "µM"}, {"measurement": "GI50", "setting": "[20]", "value": 1780, "unit": "nM"}, {"measurement": "TGI", "setting": "[20]", "value": 3.19, "unit": "µM"}, {"measurement": "GI50", "setting": "[21]", "value": 1730, "unit": "nM"}, {"measurement": "TGI", "setting": "[21]", "value": 3.22, "unit": "µM"}, {"measurement": "GI50", "setting": "[22]", "value": 2200, "unit": "nM"}, {"measurement": "TGI", "setting": "[22]", "value": 5.25, "unit": "µM"}, {"measurement": "GI50", "setting": "[23]", "value": 2080, "unit": "nM"}, {"measurement": "TGI", "setting": "[23]", "value": 4.06, "unit": "µM"}, {"measurement": "GI50", "setting": "[24]", "value": 3.43, "unit": "µM"}, {"measurement": "TGI", "setting": "[24]", "value": 13, "unit": "µM"}, {"measurement": "GI50", "setting": "[25]", "value": 6.23, "unit": "µM"}, {"measurement": "TGI", "setting": "[25]", "value": 20.5, "unit": "µM"}, {"measurement": "GI50", "setting": "[26]", "value": 4.67, "unit": "µM"}, {"measurement": "TGI", "setting": "[26]", "value": 22.7, "unit": "µM"}, {"measurement": "GI50", "setting": "[27]", "value": 4.44, "unit": "µM"}, {"measurement": "TGI", "setting": "[27]", "value": 23.5, "unit": "µM"}, {"measurement": "GI50", "setting": "[28]", "value": 1690, "unit": "nM"}, {"measurement": "TGI", "setting": "[28]", "value": 3.13, "unit": "µM"}, {"measurement": "GI50", "setting": "[29]", "value": 2060, "unit": "nM"}, {"measurement": "TGI", "setting": "[29]", "value": 4.74, "unit": "µM"}, {"measurement": "GI50", "setting": "[30]", "value": 2920, "unit": "nM"}, {"measurement": "TGI", "setting": "[30]", "value": 10.2, "unit": "µM"}, {"measurement": "GI50", "setting": "[31]", "value": 1660, "unit": "nM"}, {"measurement": "TGI", "setting": "[31]", "value": 3.05, "unit": "µM"}, {"measurement": "GI50", "setting": "[32]", "value": 3.1, "unit": "µM"}, {"measurement": "TGI", "setting": "[32]", "value": "> 100", "unit": "µM"}, {"measurement": "GI50", "setting": "[33]", "value": 2270, "unit": "nM"}, {"measurement": "TGI", "setting": "[33]", "value": 6.14, "unit": "µM"}, {"measurement": "GI50", "setting": "[34]", "value": 1790, "unit": "nM"}, {"measurement": "TGI", "setting": "[34]", "value": 3.19, "unit": "µM"}, {"measurement": "GI50", "setting": "[35]", "value": 20.8, "unit": "µM"}, {"measurement": "TGI", "setting": "[35]", "value": 39.5, "unit": "µM"}, {"measurement": "GI50", "setting": "[36]", "value": 7.35, "unit": "µM"}, {"measurement": "TGI", "setting": "[36]", "value": 22.3, "unit": "µM"}, {"measurement": "GI50", "setting": "[37]", "value": 2860, "unit": "nM"}, {"measurement": "TGI", "setting": "[37]", "value": 9.4, "unit": "µM"}, {"measurement": "GI50", "setting": "[38]", "value": 3.85, "unit": "µM"}, {"measurement": "TGI", "setting": "[38]", "value": 14.7, "unit": "µM"}, {"measurement": "GI50", "setting": "[39]", "value": 3.43, "unit": "µM"}, {"measurement": "TGI", "setting": "[39]", "value": 20.8, "unit": "µM"}, {"measurement": "GI50", "setting": "[40]", "value": 2320, "unit": "nM"}, {"measurement": "TGI", "setting": "[40]", "value": 7.61, "unit": "µM"}, {"measurement": "GI50", "setting": "[41]", "value": 12.2, "unit": "µM"}, {"measurement": "TGI", "setting": "[41]", "value": 34.4, "unit": "µM"}, {"measurement": "GI50", "setting": "[42]", "value": 5.69, "unit": "µM"}, {"measurement": "TGI", "setting": "[42]", "value": "> 100", "unit": "µM"}, {"measurement": "GI50", "setting": "[43]", "value": 2760, "unit": "nM"}, {"measurement": "TGI", "setting": "[43]", "value": 9, "unit": "µM"}, {"measurement": "GI50", "setting": "[44]", "value": 1780, "unit": "nM"}, {"measurement": "TGI", "setting": "[44]", "value": 3.53, "unit": "µM"}, {"measurement": "GI50", "setting": "[45]", "value": 1830, "unit": "nM"}, {"measurement": "TGI", "setting": "[45]", "value": 3.54, "unit": "µM"}, {"measurement": "GI50", "setting": "[46]", "value": 15.3, "unit": "µM"}, {"measurement": "TGI", "setting": "[46]", "value": 32.4, "unit": "µM"}, {"measurement": "GI50", "setting": "[47]", "value": 2350, "unit": "nM"}, {"measurement": "TGI", "setting": "[47]", "value": 7.81, "unit": "µM"}, {"measurement": "GI50", "setting": "[48]", "value": 7.45, "unit": "µM"}, {"measurement": "TGI", "setting": "[48]", "value": 27.7, "unit": "µM"}, {"measurement": "GI50", "setting": "[49]", "value": 3.35, "unit": "µM"}, {"measurement": "TGI", "setting": "[49]", "value": "> 100", "unit": "µM"}, {"measurement": "GI50", "setting": "[50]", "value": 3.42, "unit": "µM"}, {"measurement": "TGI", "setting": "[50]", "value": 19.9, "unit": "µM"}, {"measurement": "GI50", "setting": "[51]", "value": 1900, "unit": "nM"}, {"measurement": "TGI", "setting": "[51]", "value": 3.48, "unit": "µM"}, {"measurement": "GI50", "setting": "[52]", "value": 12.7, "unit": "µM"}, {"measurement": "TGI", "setting": "[52]", "value": 25.4, "unit": "µM"}, {"measurement": "GI50", "setting": "[53]", "value": 6.48, "unit": "µM"}, {"measurement": "TGI", "setting": "[53]", "value": 19.7, "unit": "µM"}, {"measurement": "GI50", "setting": "[54]", "value": 2410, "unit": "nM"}, {"measurement": "TGI", "setting": "[54]", "value": 7.52, "unit": "µM"}]}]}
